According to patent US20060110456A1, “Method for biocidal and/or biostatic treatment and compositions therefor” (NATIONAL UNIVERSITY OF SINGAPORE, priority 2004, published 2006):
“Also recorded” adds a separate entry of the source. Where a name gives a salt, the structure may show the parent alone.

Assays:
[1] = tested on: marine bacteria (ten strains); assay: Bio-adhesion assay (crystal violet microplate); type: cell-based, marine bacteria isolated from Singapore fouling communities; conditions: for Effect of drugs on adhesion of bacteria: 50 μl of 125 μg ml^−1 drug + 200 μl bacteria, 2 hours
Experimental: The effect of pharmaceuticals on bacterial adhesion was analyzed using a modified microplate method adapted from Shea and Williamson (1990). This method consists of staining the attached bacteria with crystal violet, releasing the stain with sodium desoxycholate, and measuring the resulting absorbance of the crystal violet. The absorbance is proportional to the degree of bacterial adhesion to the surface.
Ten strains of bacteria (strain numbers 1, 4, 9, 14, 18, 20, 27, 28, 29 and 30) were chosen for this study. Flat bottom non-tissue culture treated polystyrene (hydrophobic, Falcon #351172) (referred to as polystyrene) and flat bottom tissue culture treated polystyrene (hydrophilic, Falcon #353072) microplates were used in the analyses. These two types of plates were chosen because they were sterile and offered two different kinds of surfaces to determine the adhesion preferences of the bacteria. Each test was done in duplicate. For the control and blank wells, 50 μl of sterile deionized water were added. For those wells that were to contain drugs, 50 μl of drugs at concentration of 125 μg ml^−1 were added. Then 200 μl of bacteria suspension in sterile seawater, whose absorbance had been adjusted to 0.6 at 600 nm using a spectrophotometer (Beckman), were added. Blanks contained 200 μl of sterile seawater.
The bacteria in suspension were allowed to attach for 2 hours at 28° C. Unattached cells were removed by pipetting out almost all trace of liquid and rinsed three times with 300 μl of sterile seawater each time. The attached cells were stained with 200 μl of crystal violet solution (0.1% w/v) in each well for 5 min. After removing the stain by pipetting, the wells were rinsed twice with 300 μl of sterile deionized water each time. Sodium desoxycholate (200 μl) solution (2% w/v) was then added to each well to extract the crystal violet from the stained cells for 10 min. The absorbance of the extracted solution was read at 590 nm using a microplate reader (Sunrise, Tecan, Switzerland).
The data were analyzed using T-test (Two-sample assuming unequal variances) to determine the significance of the absorbance values of each bacterial strain versus the blanks to determine whether there was adhesion, i.e. increase in absorbance. Each drug effect on adhesion was analyzed by comparing the absorbance of each bacterial strain minus the control blank versus bacteria in presence of drug minus the drug control. When the data is significant, there are bacterial cells attached to the surface in the control but in the presence of drugs, there is no attachment.

[2] = tested on: hard fouling (barnacles, serpulids, spirorbids); assay: Field testing of coated rods; type: in vivo; design: Total hard fouling, difference in mean cover (%), drug vs control / Barnacles, difference in mean cover (%), drug vs control: tested at 25 µg/ml of coating; Serpulids, difference in mean cover (%), drug vs control: tested at 25 µg/ml of coating mix; conditions: for Overall performance in field assay: crude rank, best (1) to worst (8); for Reduction of total hard fouling cover compared to VC50 alone / Effect of addition of drug on antifouling performance of VC50 coating (total hard fouling): drug at 25 ug per ml of VC50 coating; for Barnacles, difference in mean cover (%), drug vs VC50 / Serpulids, difference in mean cover (%), drug vs VC50 / Spirorbids, difference in mean cover (%), drug vs VC50 / Total hard fouling, difference in mean cover (%), drug vs VC50: drug + VC50 rods vs VC50 control; for Barnacles, difference in mean cover (%), drug vs control / Serpulids, difference in mean cover (%), drug vs control / Spirorbids, difference in mean cover (%), drug vs control / Total hard fouling, difference in mean cover (%), drug vs control: drug + VC50 rods vs uncoated blank control; for Barnacles Mean cover (%) / Serpulids Mean cover (%) / Spirorbids Mean cover (%) / Total hard fouling Mean cover (%): rods coated with drug + VC50, field test; for Total hard fouling Mean cover (%): percentage cover within 6 mm×50 mm transect
Experimental: Fouling on rods occurs more rapidly than on flat panels, enabling rapid assessment of the performance of coatings.
6 mm diameter glass rods were cut to 150 mm length and prepared prior to coating by baking in a furnace at 150° C. for 24 hours and then cooling in a dessicator.
All pharmaceuticals were obtained in commercially available form. All tablets were reduced to fine powder with a mortar and pestle, and capsules were opened to extract the contents. The amount of drug powder required to attain the desired concentrations for all tests was calculated from product dosage information and then measured by weight on a high-resolution electronic balance. This was added to the coating and mixed thoroughly prior to application to obtain the concentration of 25 ug active ingredient per ml of coating mix.
The commercial antifouling product used to benchmark field experiments was VC Offshore with Teflon® manufactured by International Coatings.
For our experiments, a reduced copper coating (“VC50”) was prepared by mixing approximately 20 g of #YBA779 into 100 ml of #YBA707. The prepared coating was then allowed to stand so that bubbles from the mixing process dissipated. 15 ml centrifuge tubes were filled with 10 mls of prepared coating. Prepared glass rods were then immersed in the coating to a height of 100 mm and then suspended on a frame to air dry until coating cured.
Five replicate rods were tested for every experimental treatment, including controls. Two sets of controls were used, an uncoated blank control and a VC50 control without pharmaceutical additives. Rod were randomly arrayed on plastic vexar mesh attached to PVC frames and suspended at a depth of 10 cm from the water surface. […] Rods were examined visually weekly for the duration of testing, which typically lasts between 6 to 10 weeks. All fouling was scored as percentage cover of each category within a 6 mm×50 mm transect on each rod.

[3] = in words; cited from earlier work
barnacle nauplii = assay: Toxicity of drugs under different light conditions and over time (stability in seawater); type: in vivo, Balanus amphitrite; conditions: 25 ug ml^−1 seawater suspension; for Change in toxicity on ageing in seawater, 12L:12D condition: 12 h light and 12 h dark; for Change in toxicity on ageing in seawater, 12L:12D condition / Change in toxicity on ageing in seawater, dark condition: after 4 weeks; for Effect of UV on drug toxicity to barnacle nauplii: UV for half an hour
Experimental: Preliminary experiments were carried out to examine the chemical stability of the drugs. 25 ug ml^−1 seawater suspensions of the drugs were prepared, in 3 replicates per condition, 3 replicate tubes containing 15 ml per test tube per prepared for each treatment type. The treatments consisted of: • i. Dark condition: tubes were wrapped in aluminium foil and kept in the dark at all times • ii. 12L:12D condition, where the tubes were subject incubated in a plant growth chamber with light regime of 12 hours light and 12 hours dark. • iii. UV treated tubes were subject to UV for half an hour. […] Sets (1) & (2) were tested at week 0, 1, 2 and after 4 weeks. “UV” set is only assayed after UV treatment. […] Effect of UV

[4] = strain 1 (Rhodovulum), hydrophobic surface (untreated polystyrene)
[5] = coated rods, 25 ug active ingredient per ml of VC50 coating
[6] = strain 4 (Bacillus), hydrophilic surface (tissue culture treated polystyrene)
[7] = strain 4 (Bacillus), hydrophobic surface (untreated polystyrene)
[8] = strain 9 (Bacillus), hydrophobic surface (untreated polystyrene)

| SMILES | Effect of drugs on adhesion of bacteria [1, 4] | Overall performance in field assay [2] | Reduction of total hard fouling cover compared to VC50 alone [2] | Effect of drugs on adhesion of bacteria [1, 6] | Effect of drugs on adhesion of bacteria [1, 7] | Effect of drugs on adhesion of bacteria [1, 8] | Change in toxicity on ageing in seawater, 12L:12D condition (barnacle nauplii) | Change in toxicity on ageing in seawater, dark condition (barnacle nauplii) | Barnacles, difference in mean cover (%), drug vs VC50 [2] | Serpulids, difference in mean cover (%), drug vs VC50 [2] | Spirorbids, difference in mean cover (%), drug vs VC50 [2] | Total hard fouling, difference in mean cover (%), drug vs VC50 [2] | Barnacles, difference in mean cover (%), drug vs control [2] | Serpulids, difference in mean cover (%), drug vs control [2] | Spirorbids, difference in mean cover (%), drug vs control [2] | Total hard fouling, difference in mean cover (%), drug vs control [2] | Effect of addition of drug on antifouling performance of VC50 coating (total hard fouling) ([2]; in words) | Barnacles Mean cover (%) [2] | Serpulids Mean cover (%) [2] | Spirorbids Mean cover (%) [2] | other results |
| --- | --- | --- | --- | --- | --- | --- | --- | --- | --- | --- | --- | --- | --- | --- | --- | --- | --- | --- | --- | --- | --- |
| CN(C)C(=O)C(CCN1CCC(O)(c2ccc(Cl)cc2)CC1)(c1ccccc1)c1ccccc1 [IMD, Loperamide hydrochloride] | * (Significantly less adhesion observed: * p < 0.05) | 1 | 54.3% | – | – | – | – | – | – | – | – | – | – | – | – | – | – | – | – | – | Effect on bacterial adhesion ([1]; polystyrene or tissue culture surface as named in the value): caused strain 1 to adhere to tissue culture surfaces; Effect of drugs on adhesion of bacteria ([1]; strain 1 (Rhodovulum), hydrophilic surface (tissue culture treated polystyrene)): *incr adhesion; Effect of drugs on adhesion of bacteria ([1]; strain 14 (Vibrio), hydrophilic surface (tissue culture treated polystyrene)): * (Significantly less adhesion observed: * p < 0.05); Reduction of total hard fouling cover compared to blank controls ([2]; coated rods): 97.3%; Barnacles, mean cover [2, 5]: 0.67%; Serpulids, mean cover [2, 5]: 0%; Spirorbids, mean cover [2, 5]: 0%; Total hard fouling, mean cover [2, 5]: 0.67%; Performance against barnacles ([2]; coated rods, in words): significantly less than on both controls; Performance against spirorbid polychaetes ([2]; coated rods, in words, hydrochloride): exclude spirorbid settlement; also recorded: no settlement by spirorbids; Effect of addition of drug on antifouling performance of VC50 coating (total hard fouling) ([2]; in words, hydrochloride): significantly increased the fouling resistance of the base coating; also recorded: significantly improved the performance of VC50 coating; Barnacles, difference in mean cover vs VC50 ([2]; vs VC50 control): −29.3%; Serpulids, difference in mean cover vs VC50 ([2]; vs VC50 control): −1.67%; Spirorbids, difference in mean cover vs VC50 ([2]; vs VC50 control): −23.33%; Total hard fouling, difference in mean cover vs VC50 ([2]; vs VC50 control): −54.3%; Barnacles, difference in mean cover vs control ([2]; vs uncoated blank control): −92.3%; Serpulids, difference in mean cover vs control ([2]; vs uncoated blank control): −3.33%; Spirorbids, difference in mean cover vs control ([2]; vs uncoated blank control): −1.67%; Total hard fouling, difference in mean cover vs control ([2]; vs uncoated blank control): −97.3%; Solubility [3]: slightly soluble in water |
| CN1CCN(CCCN2c3ccccc3Sc3ccc(Cl)cc32)CC1 [PCZ, prochlorperazine maleate] | * (Significantly less adhesion observed: * p < 0.05) | 7 | 16% | * (Significantly less adhesion observed: * p < 0.05) | * (Significantly less adhesion observed: * p < 0.05) | * (Significantly less adhesion observed: * p < 0.05) | marked decrease in toxicity | appreciable decrease in toxicity | −7.67% | −1.67% | −6.66% | −16% | −70.67% | −3.33% | +15% | −58% | this reduction was not statistically significant | 22.33% | 0% | 16.67% | Effect of drugs on adhesion of bacteria ([1]; strain 30, hydrophobic surface (untreated polystyrene)): * (Significantly less adhesion observed: * p < 0.05); Total hard fouling Mean cover (%) [2]: 39% |
| CNCCC(Oc1ccc(C(F)(F)F)cc1)c1ccccc1 (stereo not drawn) [PZC, fluoxetine hydrochloride] | * (Significantly less adhesion observed: * p < 0.05) | 6 | ~24% | – | – | * (Significantly less adhesion observed: * p < 0.05) | did not show an appreciable change | – | −14% | −1.67% | −7.67% | −23.37% | −78.34% | −6.67% | +3.33% | −81.67% | did not significantly improve antifouling performance | 9.33% | 0% | 9% | Effect of UV on drug toxicity to barnacle nauplii (barnacle nauplii): some increase in toxicity; Total hard fouling Mean cover (%) [2]: 18.33% |
| CN1CCN(CCCN2c3ccccc3Sc3ccc(C(F)(F)F)cc32)CC1 [TFZ, Trifluoperazine hydrochloride] | – | – | – | * (Significantly less adhesion observed: * p < 0.05) | *** (*** p < 0.005) | ** (** p < 0.01) | marked decrease in toxicity | appreciable decrease in toxicity | – | – | – | – | – | – | – | – | – | – | – | – | Effect of drugs on adhesion of bacteria ([1]; strain 18 (Microbacterium), hydrophilic surface (tissue culture treated polystyrene)): * (Significantly less adhesion observed: * p < 0.05); Effect of drugs on adhesion of bacteria ([1]; strain 27, hydrophobic surface (untreated polystyrene)): *** (*** p < 0.005); Effect of UV on drug toxicity to barnacle nauplii (barnacle nauplii): some increase in toxicity |
